Results taken from patent publication US9908886B2 (Agency for Science, Technology and Research, priority 2012, dated 2018).
“Also recorded” adds a separate entry of the source. Read-outs that look alike come from different tables or passages of the source.

Experiments:
[1] = tested on: D1.1 cells; experiment: Cell cytotoxicity assay (CellTiter-Glo); type: cell-based
Experimental: (§1) Cancer cell lines, MV-4-11 (leukemia), P116.c139 (acute T cell leukemia) and D1.1 (acute T cell leukemia), were purchased from ATCC and cultured according to supplier's recommendations. K562 cells (myelogenous leukemia) over-expressing eIF4E, were also used for the cytotoxicity assay. For cells treated for 48 hours, 5000 cells were seeded in 70 μl of growth medium in black, flat-bottom 96-well plate. For cells treated for six days, 1000 cells were seeded in 70 μl of growth medium in black, flat-bottom 96-well plate. […] 50 μl of the diluted compounds was added to the cells and incubated at 37° C. in 5% CO2. After 48 hours or six days treatment, cell viability was determined by CellTiter-Glo Luminescent Cell Viability Assay (Promega, Madison, Wis.). 120 μl of the reagent was added to the cells and luminescence was measured using Tecan Safire Reader. Data was analysed with Graphpad Prism software and the figures represented indicate the half maximal inhibitory concentration (IC50). Error bars denote standard deviation (SD).

[2] = tested on: MV-4-11 cells; experiment: Cell cytotoxicity assay (CellTiter-Glo); type: cell-based
Experimental: as §1

[3] = tested on: K562 cells over-expressing eIF4E; experiment: Cell cytotoxicity assay (CellTiter-Glo); type: cell-based
Experimental: as §1

[4] = tested on: P116.c139 cells; experiment: Cell cytotoxicity assay (CellTiter-Glo); type: cell-based
Experimental: as §1

[5] = tested on: CD34+ BC-CML primary cells; details: background section; including cells carrying T315I mutation; cited from earlier work
[6] = tested on: patient-derived BC cells in NSG mice; details: in vivo treatment for three consecutive weeks; CGP57380 40 mg/kg/d, dasatinib 5 mg/kg/d; background section; cited from earlier work
[7] = tested on: eIF4E phosphorylation in BC GMPs; details: background section; cited from earlier work
[8] = tested on: BC CD34+ CML cells; details: in vitro treatment of the cells; background section; cited from earlier work
[9] = tested on: nuclear beta-catenin in BC-CML cells; details: background section; cited from earlier work
[10] = tested on: TNF production by macrophage; details: TLR agonist stimulation; literature; cited from earlier work

SMILES | IC50 ([1]; 48 hours, read-out: IC50 after 48 hours of treatment, D1.1) | IC50 ([1]; 6 days, read-out: IC50 after 6 days of treatment, D1.1) | IC50 ([2]; 48 hours, read-out: IC50 after 48 hours of treatment, MV-4-11) | IC50 ([2]; 6 days, read-out: IC50 after 6 days of treatment, MV-4-11) | IC50 ([3]; 48 hours, read-out: IC50 after 48 hours of treatment, K562) | IC50 ([3]; 6 days, read-out: IC50 after 6 days of treatment, K562) | IC50 ([4]; 48 hours, read-out: IC50 after 48 hours of treatment, P116.c139) | IC50 ([4]; 6 days, read-out: IC50 after 6 days of treatment, P116.c139) | ability of CD34+ BC cells to serially replate for more than 8 weeks in methylcellulose [5] | serial transplantation of BC cells in NSG mice at 16 weeks [6] | eIF4E phosphorylation in BC GMPs [7] | ability of BC CD34+ CML cells to engraft NSG mice [8] | accumulation of active nuclear beta-catenin in BC GMPs [9] | production / release of TNF by macrophage [10]
CC(=O)C1=C(O)C=C2Oc3c(C(N)=O)c(O)cc(O)c3[C@]2(C)C1=O [Cercosporamide, reference compound] | 20.2 µM | 17.3 µM | > 50 µM | 4 µM | > 50 µM | 4.3 µM | > 50 µM | 4.9 µM | – | – | – | – | – | –
Cc1nc(Nc2ncc(C(=O)Nc3c(C)cccc3Cl)s2)cc(N2CCN(CCO)CC2)n1 [dasatinib] | – | – | – | – | – | – | – | – | only partially impaired | not | not | – | – | –
Nc1ncnc2n[nH]c(Nc3ccc(F)cc3)c12 [CGP57380] | – | – | – | – | – | – | – | – | impaired the ability of CD34+ BC cells | prevented BC cells from serially transplanting NSG mice | inhibited eIF4E phosphorylation | retarded their ability to engraft NSG mice | preventes accumulation of active nuclear beta-catenin | inhibited by MNK kinases inhibitor CGP57380 in a dose dependant fashion; also recorded: inhibits the release of TNF alpha by macrophage
